#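 Cells were grown in 96-well plates and exposed to each compound for 48 hours at five concentrations; endpoints were interpolated linearly between bracketing concentrations, or set to the highest concentration if not reached. GI50 = concentration required for 50% inhibition of growth.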 Active and inactive are the calls of the source. Rule as the data show it: active = GI50 up to about 1.1 µM and inactive = higher.
# Tests used:
# Experiment in all cases: NCI anticancer screen, dose series, 48 h
# [1] = system: DU-145
# [2] = system: MOLT-4
# [3] = system: UACC-257
# [4] = system: T47D
# [5] = system: A498
# [6] = system: MDA-N
# [7] = system: SNB-19
# [8] = system: HOP-92
# [9] = system: TK-10
# [10] = system: MDA-MB-231
# [11] = system: SF-295
# [12] = system: HL-60
# [13] = system: NCI-H460
# [14] = system: BT-549
# [15] = system: Hs-578T
# [16] = system: SF-539
# [17] = system: SNB-75
# [18] = system: ACHN
# [19] = system: SW-620
# [20] = system: SR
# [21] = system: CCRF-CEM
# [22] = system: HCT-15
# [23] = system: SK-MEL-2
# [24] = system: RPMI-8226
# [25] = system: PC-3
# [26] = system: NCI-H522
# [27] = system: MCF7
# [28] = system: NCI/ADR-RES
# [29] = system: OVCAR-8
# [30] = system: SN12C
# [31] = system: COLO 205
# [32] = system: LOX IMVI
# [33] = system: EKVX
# [34] = system: HT-29
# [35] = system: NCI-H226
# [36] = system: OVCAR-5
# [37] = system: HCT-116
# [38] = system: A549
# [39] = system: M14
# [40] = system: SF-268
# [41] = system: HOP-62
# [42] = system: KM12
# [43] = system: SK-MEL-28
# [44] = system: U-251
# [45] = system: K562
# [46] = system: OVCAR-3
# [47] = system: NCI-H23
# [48] = system: 786-0
# [49] = system: UO-31
# [50] = system: MDA-MB-435
# [51] = system: HCC 2998
structure (smiles),measurement,setting,value
CCOP(=O)(OCC)/C(C#N)=C/c1nccn1C,GI50,[1],> 100 µM (inactive)
same,GI50,[2],> 100 µM (inactive)
same,GI50,[3],> 100 µM (inactive)
same,GI50,[4],> 100 µM (inactive)
same,GI50,[5],> 100 µM (inactive)
same,GI50,[6],> 100 µM (inactive)
same,GI50,[7],> 100 µM (inactive)
same,GI50,[8],63 µM (inactive)
same,GI50,[9],> 100 µM (inactive)
same,GI50,[10],> 100 µM (inactive)
same,GI50,[11],> 100 µM (inactive)
same,GI50,[12],> 100 µM (inactive)
same,GI50,[13],> 100 µM (inactive)
same,GI50,[14],> 100 µM (inactive)
same,GI50,[15],> 100 µM (inactive)
same,GI50,[16],> 100 µM (inactive)
same,GI50,[17],> 100 µM (inactive)
same,GI50,[18],> 100 µM (inactive)
same,GI50,[19],> 100 µM (inactive)
same,GI50,[20],> 100 µM (inactive)
same,GI50,[21],> 100 µM (inactive)
same,GI50,[22],> 100 µM
same,GI50,[23],> 100 µM (inactive)
same,GI50,[24],> 100 µM (inactive)
same,GI50,[25],> 100 µM (inactive)
same,GI50,[26],> 100 µM (inactive)
same,GI50,[27],> 100 µM (inactive)
same,GI50,[28],> 100 µM (inactive)
same,GI50,[29],> 100 µM (inactive)
same,GI50,[30],> 100 µM (inactive)
same,GI50,[31],> 100 µM (inactive)
same,GI50,[32],> 100 µM (inactive)
same,GI50,[33],> 100 µM (inactive)
same,GI50,[34],> 100 µM (inactive)
same,GI50,[35],> 100 µM (inactive)
same,GI50,[36],> 100 µM (inactive)
same,GI50,[37],> 100 µM (inactive)
same,GI50,[38],> 100 µM (inactive)
same,GI50,[39],> 100 µM (inactive)
same,GI50,[40],> 100 µM (inactive)
same,GI50,[41],> 100 µM (inactive)
same,GI50,[42],> 100 µM (inactive)
same,GI50,[43],> 100 µM (inactive)
same,GI50,[44],> 100 µM (inactive)
same,GI50,[45],> 100 µM (inactive)
same,GI50,[46],> 100 µM (inactive)
same,GI50,[47],> 100 µM (inactive)
same,GI50,[48],> 100 µM (inactive)
same,GI50,[49],> 100 µM (inactive)
same,GI50,[50],> 100 µM (inactive)
same,GI50,[51],> 100 µM (inactive)
